Values of other authors as cited in patent US20230349886A1, “SYSTEMS AND METHODS FOR PREDICTING CARDIOTOXICITY OF MOLECULAR PARAMETERS OF A COMPOUND BASED ON MACHINE LEARNING ALGORITHMS” (UTI Limited Partnership, priority 2015, published 2023).
Like-named read-outs stand apart in the source and are kept apart here.

Tests used:
[1] = Brown dataset; flag given as 1 or 0
hERG = hERG (Homo sapiens, UniProt Q12809); for HERG maxInhib: test concentration or dose not given here
Cav1.2 = Cav1.2 (Homo sapiens, UniProt Q13936); for CAV1.2 max inhib: test concentration or dose not given here
Nav1.5 = Nav1.5 (Homo sapiens, UniProt Q14524); settings: for IC50: read-out: NAV1.5 IC50; for NAV1.5 max inhib: test concentration or dose not given here
[2] = read-out: HERG IC50, Brown dataset
[3] = read-out: CAV1.2 IC50, Brown dataset
[4] = Table 11, calculated from HERG-IC50 of the Kramer et al. 2013 data

Sequence of Cav1.2 (Q13936 1-2138 isoform Q13936-12): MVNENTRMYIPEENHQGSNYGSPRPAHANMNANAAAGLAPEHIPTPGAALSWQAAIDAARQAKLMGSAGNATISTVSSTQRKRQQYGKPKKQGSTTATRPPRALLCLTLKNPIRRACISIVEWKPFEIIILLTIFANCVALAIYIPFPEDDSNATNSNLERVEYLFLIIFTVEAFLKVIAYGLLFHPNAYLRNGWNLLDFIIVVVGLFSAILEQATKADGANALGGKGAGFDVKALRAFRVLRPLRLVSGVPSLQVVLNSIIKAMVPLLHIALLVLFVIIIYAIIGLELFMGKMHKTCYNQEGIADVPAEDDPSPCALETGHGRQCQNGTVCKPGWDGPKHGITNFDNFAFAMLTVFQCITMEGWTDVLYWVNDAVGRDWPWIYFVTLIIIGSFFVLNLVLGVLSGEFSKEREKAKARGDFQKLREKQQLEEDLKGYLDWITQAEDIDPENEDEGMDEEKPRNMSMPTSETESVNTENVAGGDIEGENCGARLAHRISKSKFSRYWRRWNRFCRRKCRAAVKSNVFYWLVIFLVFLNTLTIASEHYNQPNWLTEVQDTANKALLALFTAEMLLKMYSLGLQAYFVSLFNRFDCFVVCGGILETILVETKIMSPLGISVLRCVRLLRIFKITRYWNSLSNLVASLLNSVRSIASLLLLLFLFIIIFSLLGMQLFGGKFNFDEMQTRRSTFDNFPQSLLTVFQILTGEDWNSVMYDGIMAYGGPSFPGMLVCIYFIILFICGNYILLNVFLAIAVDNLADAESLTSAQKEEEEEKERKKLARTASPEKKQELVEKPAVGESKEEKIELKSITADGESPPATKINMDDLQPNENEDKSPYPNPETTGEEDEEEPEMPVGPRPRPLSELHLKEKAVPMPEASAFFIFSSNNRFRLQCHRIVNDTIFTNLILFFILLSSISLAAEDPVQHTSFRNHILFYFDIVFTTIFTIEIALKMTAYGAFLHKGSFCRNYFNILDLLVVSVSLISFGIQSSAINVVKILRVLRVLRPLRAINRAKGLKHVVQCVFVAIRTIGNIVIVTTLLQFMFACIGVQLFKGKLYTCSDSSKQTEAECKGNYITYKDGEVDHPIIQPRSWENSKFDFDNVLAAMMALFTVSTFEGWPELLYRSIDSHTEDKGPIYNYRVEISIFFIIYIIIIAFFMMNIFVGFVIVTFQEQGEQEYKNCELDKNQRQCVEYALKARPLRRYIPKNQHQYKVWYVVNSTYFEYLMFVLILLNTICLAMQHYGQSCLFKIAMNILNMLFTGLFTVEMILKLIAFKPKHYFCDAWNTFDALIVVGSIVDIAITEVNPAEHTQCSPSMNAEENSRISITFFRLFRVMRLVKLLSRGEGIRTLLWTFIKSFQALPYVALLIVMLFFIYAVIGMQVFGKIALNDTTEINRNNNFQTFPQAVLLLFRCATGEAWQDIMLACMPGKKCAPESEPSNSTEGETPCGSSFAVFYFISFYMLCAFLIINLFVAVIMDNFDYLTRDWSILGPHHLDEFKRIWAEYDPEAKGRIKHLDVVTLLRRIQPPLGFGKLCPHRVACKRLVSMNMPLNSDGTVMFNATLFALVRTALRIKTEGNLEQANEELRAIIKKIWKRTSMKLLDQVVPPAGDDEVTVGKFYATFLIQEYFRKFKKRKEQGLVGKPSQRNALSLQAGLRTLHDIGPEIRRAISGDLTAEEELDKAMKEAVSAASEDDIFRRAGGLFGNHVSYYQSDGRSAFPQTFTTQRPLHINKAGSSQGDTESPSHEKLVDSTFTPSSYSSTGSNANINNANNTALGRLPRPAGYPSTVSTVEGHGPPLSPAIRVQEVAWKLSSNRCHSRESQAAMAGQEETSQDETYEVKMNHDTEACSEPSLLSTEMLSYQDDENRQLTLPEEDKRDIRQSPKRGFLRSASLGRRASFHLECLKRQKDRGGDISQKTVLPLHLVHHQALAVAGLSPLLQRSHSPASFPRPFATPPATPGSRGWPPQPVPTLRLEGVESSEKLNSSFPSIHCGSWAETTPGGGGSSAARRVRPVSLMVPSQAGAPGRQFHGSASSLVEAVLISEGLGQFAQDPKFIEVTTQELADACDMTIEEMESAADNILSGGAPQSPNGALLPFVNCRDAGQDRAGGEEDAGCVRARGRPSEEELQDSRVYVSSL
Sequence of Cav1.2 (Q08289 whole entry partner): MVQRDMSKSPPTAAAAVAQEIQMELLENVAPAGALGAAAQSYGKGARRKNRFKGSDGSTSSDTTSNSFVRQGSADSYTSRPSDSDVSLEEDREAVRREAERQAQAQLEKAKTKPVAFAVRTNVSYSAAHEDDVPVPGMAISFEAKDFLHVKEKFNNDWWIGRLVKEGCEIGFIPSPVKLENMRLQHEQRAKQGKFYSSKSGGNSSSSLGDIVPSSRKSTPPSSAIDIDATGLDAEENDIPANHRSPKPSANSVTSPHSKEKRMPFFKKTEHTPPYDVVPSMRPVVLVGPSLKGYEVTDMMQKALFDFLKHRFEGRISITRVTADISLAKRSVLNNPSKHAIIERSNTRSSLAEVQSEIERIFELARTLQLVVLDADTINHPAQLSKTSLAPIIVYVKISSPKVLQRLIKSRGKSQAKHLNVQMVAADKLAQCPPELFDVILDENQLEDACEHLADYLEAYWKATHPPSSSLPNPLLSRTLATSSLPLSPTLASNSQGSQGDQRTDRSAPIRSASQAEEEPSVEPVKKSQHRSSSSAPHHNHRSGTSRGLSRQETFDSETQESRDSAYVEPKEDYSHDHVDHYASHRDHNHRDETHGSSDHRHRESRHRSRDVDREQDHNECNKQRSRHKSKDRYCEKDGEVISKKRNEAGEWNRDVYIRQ
Sequence of Cav1.2 (P54289 25-946 partner limits assumed): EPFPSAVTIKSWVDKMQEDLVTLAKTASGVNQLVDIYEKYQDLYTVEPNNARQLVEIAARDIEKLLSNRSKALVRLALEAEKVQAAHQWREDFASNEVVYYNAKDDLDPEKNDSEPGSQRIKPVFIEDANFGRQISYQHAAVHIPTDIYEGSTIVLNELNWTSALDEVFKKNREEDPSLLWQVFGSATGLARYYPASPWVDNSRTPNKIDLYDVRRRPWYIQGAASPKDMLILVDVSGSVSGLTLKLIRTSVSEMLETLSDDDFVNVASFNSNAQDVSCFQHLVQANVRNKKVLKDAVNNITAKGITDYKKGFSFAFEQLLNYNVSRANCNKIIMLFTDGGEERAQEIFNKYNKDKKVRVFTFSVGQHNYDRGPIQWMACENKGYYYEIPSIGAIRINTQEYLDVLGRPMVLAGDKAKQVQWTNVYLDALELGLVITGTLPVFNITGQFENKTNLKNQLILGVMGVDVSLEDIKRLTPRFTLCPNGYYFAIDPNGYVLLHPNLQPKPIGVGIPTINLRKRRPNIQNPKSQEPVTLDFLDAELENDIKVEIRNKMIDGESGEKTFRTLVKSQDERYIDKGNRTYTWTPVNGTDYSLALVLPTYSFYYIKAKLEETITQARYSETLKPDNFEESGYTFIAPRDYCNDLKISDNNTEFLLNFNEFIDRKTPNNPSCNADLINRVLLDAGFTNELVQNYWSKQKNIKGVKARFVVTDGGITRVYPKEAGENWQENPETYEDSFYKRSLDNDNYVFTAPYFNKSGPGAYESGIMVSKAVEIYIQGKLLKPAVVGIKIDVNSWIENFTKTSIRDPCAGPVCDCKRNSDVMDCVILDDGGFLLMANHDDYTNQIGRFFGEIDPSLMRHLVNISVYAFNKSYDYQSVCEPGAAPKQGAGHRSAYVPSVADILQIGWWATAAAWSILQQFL
Sequence of Cav1.2 (P54289 947-1103 partner limits assumed): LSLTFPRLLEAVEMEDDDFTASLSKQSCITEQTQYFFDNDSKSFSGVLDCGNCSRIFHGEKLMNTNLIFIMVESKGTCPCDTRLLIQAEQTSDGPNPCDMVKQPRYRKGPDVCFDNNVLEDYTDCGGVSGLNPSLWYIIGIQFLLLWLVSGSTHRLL
Sequence of hERG (Q12809 whole entry): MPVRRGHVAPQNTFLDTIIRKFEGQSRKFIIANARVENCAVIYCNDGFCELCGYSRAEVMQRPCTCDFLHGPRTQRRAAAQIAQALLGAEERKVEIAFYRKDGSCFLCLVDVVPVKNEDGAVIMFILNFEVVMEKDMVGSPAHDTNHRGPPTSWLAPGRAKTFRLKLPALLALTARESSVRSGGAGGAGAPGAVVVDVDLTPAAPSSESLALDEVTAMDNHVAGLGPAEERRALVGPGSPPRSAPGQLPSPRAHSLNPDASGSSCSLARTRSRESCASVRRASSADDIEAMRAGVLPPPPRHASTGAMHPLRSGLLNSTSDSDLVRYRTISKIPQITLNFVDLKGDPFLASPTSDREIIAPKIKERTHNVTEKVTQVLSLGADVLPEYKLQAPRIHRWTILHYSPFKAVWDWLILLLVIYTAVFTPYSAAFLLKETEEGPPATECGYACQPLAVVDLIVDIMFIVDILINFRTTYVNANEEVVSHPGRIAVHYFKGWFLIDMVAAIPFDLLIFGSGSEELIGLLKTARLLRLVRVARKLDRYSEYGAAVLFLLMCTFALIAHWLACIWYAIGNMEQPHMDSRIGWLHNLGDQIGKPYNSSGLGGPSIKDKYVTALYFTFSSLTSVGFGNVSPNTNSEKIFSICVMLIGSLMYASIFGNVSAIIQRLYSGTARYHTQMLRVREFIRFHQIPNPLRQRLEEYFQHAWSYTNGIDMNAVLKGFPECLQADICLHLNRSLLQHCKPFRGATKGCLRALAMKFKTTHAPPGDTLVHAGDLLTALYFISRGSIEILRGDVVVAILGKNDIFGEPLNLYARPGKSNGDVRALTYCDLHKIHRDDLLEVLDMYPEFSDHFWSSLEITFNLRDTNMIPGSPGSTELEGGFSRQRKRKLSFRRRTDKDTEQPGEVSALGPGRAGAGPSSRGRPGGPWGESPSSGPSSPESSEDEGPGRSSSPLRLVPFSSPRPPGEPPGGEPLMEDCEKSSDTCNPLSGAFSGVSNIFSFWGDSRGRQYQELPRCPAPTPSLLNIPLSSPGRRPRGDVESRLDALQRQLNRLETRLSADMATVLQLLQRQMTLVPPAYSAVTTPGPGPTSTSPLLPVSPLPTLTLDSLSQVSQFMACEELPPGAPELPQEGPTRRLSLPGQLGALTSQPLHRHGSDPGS

| SMILES | Ris (TdP risk flag) [1] | CAV1.2 max inhib (Cav1.2; Brown dataset) | IC50 (Cav1.2; [3]) [µM] | NAV1.5 max inhib (Nav1.5; Brown dataset) | IC50 (Nav1.5; Brown dataset) [µM] | further results |
| --- | --- | --- | --- | --- | --- | --- |
| CCCCc1oc2ccccc2c1C(=O)c1cc(I)c(OCCN(CC)CC)c(I)c1 [amiodaron] | 1 |  |  |  |  |  |
| CN(C)CCCN1c2ccccc2Sc2ccc(Cl)cc21 [chlorprom ne] | 1 |  |  |  |  | HERG maxInhib (hERG; Brown dataset): 96.7; IC50 (hERG; [2]): 1.5 µM |
| COc1cc(N)c(Cl)cc1C(=O)NC1CCN(CCCOc2ccc(F)cc2)CC1OC (stereo not drawn) [cisapride] | 1 | 42.8 | 11.8 | 22.9 | 337 |  |
| CN1CCN(C2=Nc3cc(Cl)ccc3Nc3ccccc32)CC1 [clozapine] |  | 73.5 |  | 91.8 | 15.1 | HERG maxInhib (hERG; Brown dataset): 97.7 |
| CN1C(=O)CN=C(c2ccccc2)c2cc(Cl)ccc21 [diazepam] | 0 |  |  |  |  |  |
| CC(C)N(CCC(C(N)=O)(c1ccccc1)c1ccccn1)C(C)C (stereo not drawn) [disopyrami] |  |  |  | 68.9 | 168 | CAV1.2 max inhib (Cav1.2): 22.1; CAV1.2 pIC50 (Cav1.2): 2.9843 902; IC50 (Cav1.2): 1040 µM |
| CN(CCOc1ccc(NS(C)(=O)=O)cc1)CCc1ccc(NS(C)(=O)=O)cc1 [dofetilide] | 1 | 54.2 |  |  |  |  |
| O=C(CCCN1CC=C(n2c(=O)[nH]c3ccccc32)CC1)c1ccc(F)cc1 [droperidol] | 1 | 83.4 | 7.6 | 59 | 22.7 |  |
| CNCC[C@H](Oc1cccc2ccccc12)c1cccs1 [duloxetine] | 0 | 99.8 | 2.8 |  |  | HERG maxInhib (hERG): 96.3; NAV1.5 max inhib (Nav1.5): 100; IC50 (Nav1.5): 5.1 µM |
| CCCCN(CCCC)CCC(O)c1cc2c(Cl)cc(Cl)cc2c2cc(C(F)(F)F)ccc12 (stereo not drawn) [halofantrin] |  |  |  | 8.3 | 331 | HERG maxInhib (hERG): 77.9; HERG pIC50 (hERG): 6.4202 403; IC50 (hERG): 0.38 µM |
| CCCCN(CCCC)CCC(O)c1cc2c(Cl)cc(Cl)cc2c2cc(C(F)(F)F)ccc12 (stereo not drawn) [halofantrine] |  |  |  |  |  | pIC50 (hERG): 6.42 |
| O=C(CCCN1CCC(O)(c2ccc(Cl)cc2)CC1)c1ccc(F)cc1 [haloperidol] |  | 94 |  | 96.6 |  | HERG maxInhib (hERG): 89.2 |
| CC(=O)NC[C@H]1CN(c2ccc(N3CCOCC3)c(F)c2)C(=O)O1 [linezolid] | 0 | 70.3 | 105 | 9.6 | 2640 | HERG maxInhib (hERG; Brown dataset): 19.3; pIC50 (hERG; [4]): 2.94; IC50 (hERG; [2]): 1150 µM |
| CCOC(=O)N1CCC(=C2c3ccc(Cl)cc3CCc3cccnc32)CC1 [loratadine] | 0 |  |  |  |  |  |
| CCC(=O)C(CC(C)N(C)C)(c1ccccc1)c1ccccc1 (stereo not drawn) [methadone] | 1 | 96.9 |  | 100 | 31.8 | HERG maxInhib (hERG; Brown dataset): 91.6; pIC50 (hERG; [4]): 5.456; IC50 (hERG; [2]): 3.5 µM |
| COCC(=O)O[C@]1(CCN(C)CCCc2nc3ccccc3[nH]2)CCc2cc(F)ccc2[C@@H]1C(C)C [mibefradil] | 0 | 92.1 |  | 100 |  |  |
| COc1c(N2C[C@@H]3CCCN[C@@H]3C2)c(F)cc2c(=O)c(C(=O)O)cn(C3CC3)c12 [moxifloxacin] |  | 53.7 |  | 17.4 |  | HERG maxInhib (hERG; Brown dataset): 75.9 |

| SMILES | Ris (TdP risk flag) [1] | CAV1.2 max inhib (Cav1.2; Brown dataset) | IC50 (Cav1.2; [3]) [µM] | NAV1.5 max inhib (Nav1.5; Brown dataset) | IC50 (Nav1.5; Brown dataset) [µM] | further results |
| --- | --- | --- | --- | --- | --- | --- |
| Cc1cn(-c2cc(NC(=O)c3ccc(C)c(Nc4nccc(-c5cccnc5)n4)c3)cc(C(F)(F)F)c2)cn1 [nilotinib] |  | 32.4 |  |  |  |  |
| CCOC(=O)C1=C(C)NC(C)=C(C(=O)OC)C1c1cccc([N+](=O)[O-])c1 (stereo not drawn) [nitrendipine] | 0 | 74.6 |  | 86.3 | 21.6 | HERG maxInhib (hERG; Brown dataset): 68.3; pIC50 (hERG; [4]): 4.609; IC50 (hERG; [2]): 24.6 µM |
| Cc1nc2n(c(=O)c1CCN1CCC(c3noc4cc(F)ccc34)CC1)CCCC2O (stereo not drawn) [paliperidone] | 1 | 33.1 | 194 | 51.2 | 109 |  |
| CCCC(C)C1(CC)C(=O)NC(=O)NC1=O (stereo not drawn) [pentobarbital] | 0 | 82.1 | 299 | 9 | 2690 | HERG maxInhib (hERG): 39.5; HERG pIC50 (hERG): 2.843 135; IC50 (hERG): 1430 µM; pIC50 (hERG): 2.843 |
| O=c1[nH]c2ccccc2n1C1CCN(CCCC(c2ccc(F)cc2)c2ccc(F)cc2)CC1 [pimozide] | 1 | 88.1 |  |  |  | HERG maxInhib (hERG): 91.3 |
| CCN1CCN(C(=O)N[C@@H](C(=O)N[C@@H]2C(=O)N3[C@@H]2SC(C)(C)[C@@H]3C(=O)O)c2ccccc2)C(=O)C1=O [piperacillin] |  | 15.9 | 1230 | 9.7 | 2430 |  |
| CCN(CC)CCNC(=O)c1ccc(N)cc1 [procainamide] |  |  |  |  |  | HERG maxInhib (hERG; Brown dataset): 50.7 |
| C=C[C@H]1C[N@@]2CC[C@H]1C[C@@H]2[C@@H](O)c1ccnc2ccc(OC)cc12 [quinidine] | 1 | 58 |  | 97.5 |  |  |
| NC(=O)c1ncn([C@@H]2O[C@H](CO)[C@@H](O)[C@H]2O)n1 [ribavirin] | 0 | 31.9 | 622 | 6.9 | 3000 | HERG maxInhib (hERG; Brown dataset): 21.4; pIC50 (hERG; [4]): 3.015; IC50 (hERG; [2]): 967 µM |
| CC(C)(C)NC(=O)[C@@H]1C[C@@H]2CCCC[C@@H]2CN1C[C@@H](O)[C@H](Cc1ccccc1)NC(=O)[C@H](CC(N)=O)NC(=O)c1ccc2ccccc2n1 [saquinavir] |  |  |  |  |  | HERG maxInhib (hERG; Brown dataset): 73.1; pIC50 (hERG; [4]): 4.772; IC50 (hERG; [2]): 16.9 µM |
| O=C1NCCN1CCN1CCC(c2cn(-c3ccc(F)cc3)c3ccc(Cl)cc23)CC1 [sertindole] | 1 | 91.5 | 6.3 | 95.5 | 6.9 |  |
| O=C(O[C@H]1CN2CCC1CC2)N1CCc2ccccc2[C@@H]1c1ccccc1 [solifenacin] |  | 96.4 |  | 100 |  |  |
| CCN(CC)CCNC(=O)c1c(C)[nH]c(/C=C2\C(=O)Nc3ccc(F)cc32)c1C [sunitinib] | 1 | 61.5 | 33.4 | 66.4 |  |  |
| Cc1cn([C@@H]2C[C@@H](O)[C@H](CO)O2)c(=O)[nH]c1=O [telbivudine] |  | 22.1 | 714 | 15.1 | 1100 | HERG maxInhib (hERG; Brown dataset): 17.4; pIC50 (hERG; [4]): 3.374; IC50 (hERG; [2]): 423 µM |
| CC(C)(C)c1ccc(C(O)CCCN2CCC(C(O)(c3ccccc3)c3ccccc3)CC2)cc1 (stereo not drawn) [terfenadine] |  | 98 |  | 99 |  |  |
| CC(CC(c1ccccc1)c1ccccc1)NC(C)(C)C (stereo not drawn) [terodiline] | 1 | 95.4 | 4.8 | 100 | 7.4 |  |
| CSc1ccc2c(c1)N(CCC1CCCCN1C)c1ccccc1S2 (stereo not drawn) [thioridazine] |  | 82.9 |  | 99.3 |  |  |
| C[C@@H](c1ncncc1F)[C@](O)(Cn1cncn1)c1ccc(F)cc1F [voriconazole] |  | 40.9 | 414 | 15.8 | 1550 |  |
